Assay results as given in patent US4401660A, “Ester derivatives of 5-O-mycaminosyl tylonolide and method of using same” (Eli Lilly and Company, priority 1981, dated 1983).
Read-outs that look alike come from different tables or passages of the source.

Assays:
[1] = test system: Streptococcus pyogenes C203; assay: ED50 in mice with experimental infections (Table IV); format: in vivo; conditions: Streptococcus pyogenes, doses given 1 and 4 hours postinfection
Outline: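 Mice with experimental infections received test compound twice, at 1 and 4 h postinfection. ED50 is the dose in mg/kg (per administration, ×2) protecting 50% of animals.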

Pasteurella multocida = assay: Treatment of Pasteurella infections in chicks (Table V); format: in vivo, one-day-old chicks; conditions: Pasteurella multocida, sc, 4 h; 30 mg/kg by subcutaneous injection one and four hours post challenge; read-out: Deaths in Treated Chicks/Number Treated (converted)
Outline: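 One-day-old chicks challenged subcutaneously with avian P. multocida (0.1 ml of 10^-3 dilution of 20-hour tryptose broth culture). Esters given at 30 mg/kg subcutaneously at 1 and 4 hours post challenge. Untreated infected controls, ten per group.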

[2] = test system: Staphylococcus epidermidis EPI2; assay: MIC, standard agar-dilution assay (Table II); format: cell-based; set-up: unit not given here
Description: (§1) The MIC's in Table II were determined by standard agar-dilution assays. The MIC's in Table III were obtained using a conventional broth-dilution microtiter test.

[3] = test system: Streptococcus pyogenes C203; assay: MIC, standard agar-dilution assay (Table II); format: cell-based; set-up: unit not given here
Description: as §1

[4] = test system: Haemophilus influenzae R252; assay: MIC, standard agar-dilution assay (Table II); format: cell-based; set-up: unit not given here; conditions: Haemophilus influenzae R252, ampicillin-resistant strain
Description: as §1

[5] = test system: Streptococcus pneumoniae Park I; assay: MIC, standard agar-dilution assay (Table II); format: cell-based; set-up: unit not given here
Description: as §1

[6] = test system: Streptococcus Group D X66; assay: MIC, standard agar-dilution assay (Table II); format: cell-based; set-up: unit not given here
Description: as §1

[7] = test system: Streptococcus Group D 9960; assay: MIC, standard agar-dilution assay (Table II); format: cell-based; set-up: unit not given here
Description: as §1

[8] = test system: Staphylococcus aureus X1.1; assay: MIC, standard agar-dilution assay (Table II); format: cell-based; set-up: unit not given here
Description: as §1

[9] = test system: Haemophilus influenzae Holt; assay: MIC, standard agar-dilution assay (Table II); format: cell-based; set-up: unit not given here; conditions: ampicillin-sensitive strain
Description: as §1

[10] = test system: Staphylococcus aureus V41; assay: MIC, standard agar-dilution assay (Table II); format: cell-based; set-up: unit not given here; conditions: Staphylococcus aureus V41, penicillin-resistant strain
Description: as §1

[11] = test system: Staphylococcus aureus X400; assay: MIC, standard agar-dilution assay (Table II); format: cell-based; set-up: unit not given here; conditions: Staphylococcus aureus X400, methicillin-resistant strain
Description: as §1

[12] = test system: Staphylococcus aureus S13E; assay: MIC, standard agar-dilution assay (Table II); format: cell-based; set-up: unit not given here
Description: as §1

[13] = test system: Staphylococcus epidermidis EPI1; assay: MIC, standard agar-dilution assay (Table II); format: cell-based; set-up: unit not given here
Description: as §1

[14] = test system: Pasteurella haemolytica 22C; assay: MIC, broth-dilution microtiter test (Table III); format: cell-based; set-up: unit not given here
Description: as §1

Mycoplasma gallisepticum = assay: MIC, broth-dilution microtiter test (Table III); format: cell-based; set-up: unit not given here
Description: as §1

[15] = test system: Pasteurella multocida 17E; assay: MIC, broth-dilution microtiter test (Table III); format: cell-based; set-up: unit not given here; conditions: bovine isolate
Description: as §1

[16] = test system: Pasteurella multocida 68C; assay: MIC, broth-dilution microtiter test (Table III); format: cell-based; set-up: unit not given here
Description: as §1

[17] = test system: Pasteurella multocida 22A; assay: MIC, broth-dilution microtiter test (Table III); format: cell-based; set-up: unit not given here
Description: as §1

Staphylococcus aureus = assay: MIC, broth-dilution microtiter test (Table III); format: cell-based; set-up: unit not given here
Description: as §1

Mycoplasma synoviae = assay: MIC, broth-dilution microtiter test (Table III); format: cell-based; set-up: unit not given here
Description: as §1

[18] = test system: Pasteurella haemolytica 41D; assay: MIC, broth-dilution microtiter test (Table III); format: cell-based; set-up: unit not given here
Description: as §1

[19] = test system: Pasteurella multocida 40G; assay: MIC, broth-dilution microtiter test (Table III); format: cell-based; set-up: unit not given here
Description: as §1

Mycoplasma hyorhinis = assay: MIC, broth-dilution microtiter test (Table III); format: cell-based; set-up: unit not given here
Description: as §1

[20] = test system: Pasteurella multocida 60A; assay: MIC, broth-dilution microtiter test (Table III); format: cell-based; set-up: unit not given here; conditions: avian isolate
Description: as §1

Streptococcus sp. 80 = assay: MIC, broth-dilution microtiter test (Table III); format: cell-based; set-up: unit not given here
Description: as §1

[21] = test system: Pasteurella haemolytica 23C; assay: MIC, broth-dilution microtiter test (Table III); format: cell-based; set-up: unit not given here
Description: as §1

[22] = C203, oral, read-out: ED50, Oral
[23] = C203, sc, subcutaneous, read-out: ED50, Subcutaneous

CCC(=O)OCC1C=C(C)C=CC(=O)C(C)CC(CC=O)C(OC2OC(C)C(O)C(N(C)C)C2OC(C)=O)C(C)C(O)CC(=O)OC1CC (stereo not shown) [Compound 12, 2'-O-Acetyl-23-O-propionyl-OMT]
ED50 [1, 22]: 150 mg/kg
ED50 [1, 23]: 8.1 mg/kg
mortality at 30 mg/kg (Pasteurella multocida): 0%
minimal inhibitory concentration (MIC) [2]: 0.25
minimal inhibitory concentration (MIC) [3]: 0.25
minimal inhibitory concentration (MIC) [4]: 8
minimal inhibitory concentration (MIC) [5]: 0.125
minimal inhibitory concentration (MIC) [6]: 0.5
minimal inhibitory concentration (MIC) [7]: 0.5
minimal inhibitory concentration (MIC) [8]: 0.5
minimal inhibitory concentration (MIC) [9]: 2
minimal inhibitory concentration (MIC) [10]: 0.5
minimal inhibitory concentration (MIC) [11]: 0.5
minimal inhibitory concentration (MIC) [12]: 0.5
minimal inhibitory concentration (MIC) [13]: 0.25
minimal inhibitory concentration (MIC) [14]: 6.25
minimal inhibitory concentration (MIC) (Mycoplasma gallisepticum): < 0.05
minimal inhibitory concentration (MIC) [15]: 1.56
minimal inhibitory concentration (MIC) [16]: 1.56
minimal inhibitory concentration (MIC) [17]: 0.78
minimal inhibitory concentration (MIC) (Staphylococcus aureus): 0.39
minimal inhibitory concentration (MIC) (Mycoplasma synoviae): < 0.05
minimal inhibitory concentration (MIC) [18]: 3.12
minimal inhibitory concentration (MIC) [19]: 0.78
minimal inhibitory concentration (MIC) (Mycoplasma hyorhinis): 3.12
minimal inhibitory concentration (MIC) [20]: 1.56
minimal inhibitory concentration (MIC) (Streptococcus sp. 80): 0.39
minimal inhibitory concentration (MIC) [21]: 3.12

CCC1OC(=O)CC(O)C(C)C(OC2OC(C)C(O)C(N(C)C)C2O)C(CC=O)CC(C)C(=O)C=CC(C)=CC1COC(=O)NCc1ccccc1 (stereo not shown) [Compound 76]
ED50 [1, 22]: > 100 mg/kg
ED50 [1, 23]: 25 mg/kg
mortality at 30 mg/kg (Pasteurella multocida): 100%
minimal inhibitory concentration (MIC) [2]: 0.125
minimal inhibitory concentration (MIC) [3]: 0.06
minimal inhibitory concentration (MIC) [4]: 1
minimal inhibitory concentration (MIC) [5]: 0.015
minimal inhibitory concentration (MIC) [6]: 0.25
minimal inhibitory concentration (MIC) [7]: 0.125
minimal inhibitory concentration (MIC) [8]: 0.125
minimal inhibitory concentration (MIC) [9]: 0.5
minimal inhibitory concentration (MIC) [10]: 0.125
minimal inhibitory concentration (MIC) [11]: 0.25
minimal inhibitory concentration (MIC) [12]: 0.125
minimal inhibitory concentration (MIC) [13]: 0.125
minimal inhibitory concentration (MIC) [14]: 6.25
minimal inhibitory concentration (MIC) (Mycoplasma gallisepticum): 0.097
minimal inhibitory concentration (MIC) [15]: 6.25
minimal inhibitory concentration (MIC) [16]: 3.12
minimal inhibitory concentration (MIC) [17]: > 50
minimal inhibitory concentration (MIC) (Staphylococcus aureus): 0.39
minimal inhibitory concentration (MIC) (Mycoplasma synoviae): < 0.048
minimal inhibitory concentration (MIC) [18]: 3.12
minimal inhibitory concentration (MIC) [19]: 6.25
minimal inhibitory concentration (MIC) (Mycoplasma hyorhinis): 0.78
minimal inhibitory concentration (MIC) [20]: 6.25
minimal inhibitory concentration (MIC) (Streptococcus sp. 80): 0.39
minimal inhibitory concentration (MIC) [21]: 3.12

CCC1OC(=O)CC(O)C(C)C(OC2OC(C)C(OC(C)=O)C(N(C)C)C2OC(C)=O)C(CC=O)CC(C)C(=O)C=CC(C)=CC1COC(C)=O (stereo not shown) [Compound 7, 2',4',23-Tri-O-acetyl-OMT]
ED50 [1, 22]: 100 mg/kg
ED50 [1, 23]: > 15 mg/kg
mortality at 30 mg/kg (Pasteurella multocida): 50%
minimal inhibitory concentration (MIC) [2]: 0.5
minimal inhibitory concentration (MIC) [3]: 0.5
minimal inhibitory concentration (MIC) [4]: 8
minimal inhibitory concentration (MIC) [5]: 0.125
minimal inhibitory concentration (MIC) [6]: 1
minimal inhibitory concentration (MIC) [7]: 1
minimal inhibitory concentration (MIC) [8]: 0.5
minimal inhibitory concentration (MIC) [9]: 2
minimal inhibitory concentration (MIC) [10]: 1
minimal inhibitory concentration (MIC) [11]: 1
minimal inhibitory concentration (MIC) [12]: 1
minimal inhibitory concentration (MIC) [13]: 0.5
minimal inhibitory concentration (MIC) [14]: 6.25
minimal inhibitory concentration (MIC) (Mycoplasma gallisepticum): 0.39
minimal inhibitory concentration (MIC) [15]: 3.12
minimal inhibitory concentration (MIC) [16]: 1.56
minimal inhibitory concentration (MIC) [17]: 3.12
minimal inhibitory concentration (MIC) (Staphylococcus aureus): 0.78
minimal inhibitory concentration (MIC) (Mycoplasma synoviae): 0.39
minimal inhibitory concentration (MIC) [18]: 6.25
minimal inhibitory concentration (MIC) [19]: 1.56
minimal inhibitory concentration (MIC) (Mycoplasma hyorhinis): 3.12
minimal inhibitory concentration (MIC) [20]: 3.12
minimal inhibitory concentration (MIC) (Streptococcus sp. 80): 0.195
minimal inhibitory concentration (MIC) [21]: 6.25

CCC1OC(=O)CC(O)C(C)C(OC2OC(C)C(O)C(N(C)C)C2OC(C)=O)C(CC=O)CC(C)C(=O)C=CC(C)=CC1CO (stereo not shown) [Compound 1, 2'-O-Acetyl-OMT]
ED50 [1, 22]: > 150 mg/kg
ED50 [1, 23]: 6.8 mg/kg
mortality at 30 mg/kg (Pasteurella multocida): 0%
minimal inhibitory concentration (MIC) [2]: 2
minimal inhibitory concentration (MIC) [3]: 0.5
minimal inhibitory concentration (MIC) [4]: 4
minimal inhibitory concentration (MIC) [5]: 0.5
minimal inhibitory concentration (MIC) [6]: 2
minimal inhibitory concentration (MIC) [7]: 4
minimal inhibitory concentration (MIC) [8]: 2
minimal inhibitory concentration (MIC) [9]: 4
minimal inhibitory concentration (MIC) [10]: 4
minimal inhibitory concentration (MIC) [11]: 4
minimal inhibitory concentration (MIC) [12]: 4
minimal inhibitory concentration (MIC) [13]: 2
minimal inhibitory concentration (MIC) [14]: 12.5
minimal inhibitory concentration (MIC) (Mycoplasma gallisepticum): 0.39
minimal inhibitory concentration (MIC) [15]: 1.56
minimal inhibitory concentration (MIC) [16]: 3.12
minimal inhibitory concentration (MIC) [17]: 3.12
minimal inhibitory concentration (MIC) (Staphylococcus aureus): 1.56
minimal inhibitory concentration (MIC) (Mycoplasma synoviae): 0.39
minimal inhibitory concentration (MIC) [18]: 12.5
minimal inhibitory concentration (MIC) [19]: 6.25
minimal inhibitory concentration (MIC) (Mycoplasma hyorhinis): 3.12
minimal inhibitory concentration (MIC) [20]: 1.56
minimal inhibitory concentration (MIC) (Streptococcus sp. 80): 0.78
minimal inhibitory concentration (MIC) [21]: 12.5
